This passage reports Activity and IC50 results from ChEMBL document CHEMBL4390652, “Design, biological evaluation and X-ray crystallography of nanomolar multifunctional ligands targeting simultaneously acetylcholinesterase and glycogen synthase kinase-3” (Eur J Med Chem, 2019).

Assay [1] has as its system Phosphatidylinositol 4,5-bisphosphate 3-kinase catalytic subunit alpha isoform (Homo sapiens), P42336 [H1047L]. Description: Binding affinity to human partial length PIK3CA H1047L mutant (R108 to N1068 residues) expressed in mammalian expression system assessed as residual binding level at 10 uM by Kinomescan method relative to control.
Assay [2] addresses Mitogen-activated protein kinase 6 (Homo sapiens) (UniProt Q16659). Kind of assay: Binding affinity to wild-type human partial length ERK3 (M1 to P413 residues) expressed in bacterial expression system assessed as residual binding level at 10 uM by Kinomescan method relative to control.
In assay [3] the target is Serine/threonine-protein kinase haspin (Homo sapiens) (UniProt Q8TF76). Description: Binding affinity to wild-type human partial length HASPIN (I452 to K798 residues) expressed in mammalian expression system assessed as residual binding level at 10 uM by Kinomescan method relative to control.
Assay [4] has as its target Hormonally up-regulated neu tumor-associated kinase (Homo sapiens) (UniProt P57058). Description: Binding affinity to wild-type human partial length HUNK (A31 to K354 residues) expressed in bacterial expression system assessed as residual binding level at 10 uM by Kinomescan method relative to control.
Assay [5] deals with Fibroblast growth factor receptor 3 (Homo sapiens) (UniProt P22607). Kind of assay: Binding affinity to wild-type human partial length FGFR3 (R442 to S771 residues) expressed in bacterial expression system assessed as residual binding level at 10 uM by Kinomescan method relative to control.
Assay [6] deals with Phosphatidylinositol 4,5-bisphosphate 3-kinase catalytic subunit alpha isoform (Homo sapiens), P42336 [Q546K]. Description: Binding affinity to human partial length PIK3CA Q546K mutant (R108 to N1068 residues) expressed in mammalian expression system assessed as residual binding level at 10 uM by Kinomescan method relative to control.
In assay [7] the target is Bone morphogenetic protein receptor type-1B (Homo sapiens) (UniProt O00238). Kind of assay: Binding affinity to wild-type human partial length BMPR1B (D178 to L502 residues) expressed in mammalian expression system assessed as residual binding level at 10 uM by Kinomescan method relative to control.
Assay [8] deals with HCT-116. Description: Cytotoxicity against human HCT116 cells assessed as growth inhibition incubated for 48 hrs by Hoechst 33342 staining based assay. It counts as cell-based. As to conditions: HCT-116, 48 h.
Assay [9] concerns ALK tyrosine kinase receptor (Homo sapiens), Q9UM73 [L1196M]. Description: Binding affinity to wild-type human partial length ALK L1196M mutant (I1088 to E1409 residues) expressed in mammalian expression system assessed as residual binding level at 10 uM by Kinomescan method relative to control.
Assay [10] concerns the target Fibroblast growth factor receptor 1 (Homo sapiens) (UniProt P11362). Kind of assay: Binding affinity to wild-type human partial length FGFR1 (P357 to V669 residues) expressed in bacterial expression system assessed as residual binding level at 10 uM by Kinomescan method relative to control.
For assay [11], the target named is Cyclin-dependent kinase 11B (Homo sapiens) (UniProt P21127). Kind of assay: Binding affinity to wild-type human partial length CDC2L1 (P353 to G692 residues) expressed in bacterial expression system assessed as residual binding level at 10 uM by Kinomescan method relative to control.
The target in assay [12] is Cytoplasmic tyrosine-protein kinase BMX (Homo sapiens) (UniProt P51813). Kind of assay: Binding affinity to wild-type human full length BMX (M1 to H675 residues) expressed in bacterial expression system assessed as residual binding level at 10 uM by Kinomescan method relative to control.
Assay [13] has as its system Tyrosine-protein kinase ABL1 (Homo sapiens), P00519 [M351T]. Description: Binding affinity to human phosphorylated ABL1 M351T mutant (S229 to K512 residues) expressed in mammalian expression system assessed as residual binding level at 10 uM by Kinomescan method relative to control.
Assay [14] deals with Serine/threonine-protein kinase TAO1 (Homo sapiens) (UniProt Q7L7X3). Kind of assay: Binding affinity to wild-type human partial length TAOK1 (M1 to A320 residues) expressed in mammalian expression system assessed as residual binding level at 10 uM by Kinomescan method relative to control.
In assay [15] the test system is Receptor-type tyrosine-protein kinase FLT3 (Homo sapiens), P36888 [UNDEFINED MUTATION]. Description: Binding affinity to human partial length FLT3 ITD/F691L double mutant expressed in bacterial expression system assessed as residual binding level at 10 uM by Kinomescan method relative to control.
Assay [16] addresses Mast/stem cell growth factor receptor Kit (Homo sapiens) (UniProt P10721). Kind of assay: Binding affinity to wild-type human partial length KIT (I571 to D952 residues) expressed in bacterial expression system assessed as residual binding level at 10 uM by Kinomescan method relative to control.
Assay [17] deals with Serine/threonine-protein kinase MAK (Homo sapiens) (UniProt P20794). Description: Binding affinity to wild-type human partial length MAK (M1 to P314 residues) expressed in bacterial expression system assessed as residual binding level at 10 uM by Kinomescan method relative to control.

Molecules are shown by their SMILES.

Chain of Fibroblast growth factor receptor 1 (Homo sapiens) (P11362 22-822 limits assumed): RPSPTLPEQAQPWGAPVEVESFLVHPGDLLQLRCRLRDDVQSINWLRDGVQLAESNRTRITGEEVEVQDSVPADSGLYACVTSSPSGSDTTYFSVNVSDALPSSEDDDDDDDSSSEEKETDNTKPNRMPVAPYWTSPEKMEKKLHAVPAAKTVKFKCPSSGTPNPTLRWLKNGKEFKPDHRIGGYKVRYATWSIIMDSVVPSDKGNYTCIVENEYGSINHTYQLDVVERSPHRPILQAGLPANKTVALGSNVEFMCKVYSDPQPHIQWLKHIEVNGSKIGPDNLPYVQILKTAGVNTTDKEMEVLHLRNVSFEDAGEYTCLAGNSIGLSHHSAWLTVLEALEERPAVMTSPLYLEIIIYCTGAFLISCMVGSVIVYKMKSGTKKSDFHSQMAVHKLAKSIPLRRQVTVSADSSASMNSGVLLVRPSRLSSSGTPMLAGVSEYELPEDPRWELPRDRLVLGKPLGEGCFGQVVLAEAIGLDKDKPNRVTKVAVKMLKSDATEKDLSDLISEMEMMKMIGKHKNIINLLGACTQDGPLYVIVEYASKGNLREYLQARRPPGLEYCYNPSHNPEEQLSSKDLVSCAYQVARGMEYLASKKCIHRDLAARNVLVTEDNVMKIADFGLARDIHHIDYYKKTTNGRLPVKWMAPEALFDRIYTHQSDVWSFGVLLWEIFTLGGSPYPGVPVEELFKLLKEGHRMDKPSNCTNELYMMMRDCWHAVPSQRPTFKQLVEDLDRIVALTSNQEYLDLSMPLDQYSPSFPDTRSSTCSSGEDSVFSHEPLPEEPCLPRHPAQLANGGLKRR
Chain of Phosphatidylinositol 4,5-bisphosphate 3-kinase catalytic subunit alpha isoform (Homo sapiens), P42336 [H1047L] (P42336 whole entry H1047L, the tested form may be a part, canonical isoform): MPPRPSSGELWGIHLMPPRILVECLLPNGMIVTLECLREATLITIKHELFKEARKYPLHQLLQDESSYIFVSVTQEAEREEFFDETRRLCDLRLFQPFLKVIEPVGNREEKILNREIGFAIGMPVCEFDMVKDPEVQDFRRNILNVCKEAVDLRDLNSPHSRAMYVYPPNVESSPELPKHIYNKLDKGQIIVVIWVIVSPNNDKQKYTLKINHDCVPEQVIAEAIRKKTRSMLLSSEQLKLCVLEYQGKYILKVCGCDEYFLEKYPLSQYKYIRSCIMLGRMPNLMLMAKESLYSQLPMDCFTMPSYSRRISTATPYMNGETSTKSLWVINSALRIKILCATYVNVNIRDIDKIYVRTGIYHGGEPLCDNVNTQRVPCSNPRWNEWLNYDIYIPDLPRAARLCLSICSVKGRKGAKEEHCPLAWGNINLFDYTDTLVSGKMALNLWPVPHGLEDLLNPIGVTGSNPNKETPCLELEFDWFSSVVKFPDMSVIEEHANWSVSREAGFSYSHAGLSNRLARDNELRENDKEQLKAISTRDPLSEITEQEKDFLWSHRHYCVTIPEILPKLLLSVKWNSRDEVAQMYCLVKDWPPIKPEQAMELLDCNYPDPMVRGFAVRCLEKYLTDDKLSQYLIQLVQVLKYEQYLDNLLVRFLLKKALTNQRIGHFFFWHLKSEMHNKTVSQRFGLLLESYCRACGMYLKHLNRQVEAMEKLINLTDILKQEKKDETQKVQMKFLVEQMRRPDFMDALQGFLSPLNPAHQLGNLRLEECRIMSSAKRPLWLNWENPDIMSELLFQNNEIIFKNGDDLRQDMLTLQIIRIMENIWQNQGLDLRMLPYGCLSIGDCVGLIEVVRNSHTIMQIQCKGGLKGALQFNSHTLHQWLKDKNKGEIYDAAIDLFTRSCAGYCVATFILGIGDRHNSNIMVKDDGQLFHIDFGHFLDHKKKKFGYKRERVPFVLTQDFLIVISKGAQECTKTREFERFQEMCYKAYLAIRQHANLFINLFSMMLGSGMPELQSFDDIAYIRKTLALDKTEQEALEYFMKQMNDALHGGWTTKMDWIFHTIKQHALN
Chain of Serine/threonine-protein kinase MAK (Homo sapiens) (P20794 whole entry, the tested form may be a part): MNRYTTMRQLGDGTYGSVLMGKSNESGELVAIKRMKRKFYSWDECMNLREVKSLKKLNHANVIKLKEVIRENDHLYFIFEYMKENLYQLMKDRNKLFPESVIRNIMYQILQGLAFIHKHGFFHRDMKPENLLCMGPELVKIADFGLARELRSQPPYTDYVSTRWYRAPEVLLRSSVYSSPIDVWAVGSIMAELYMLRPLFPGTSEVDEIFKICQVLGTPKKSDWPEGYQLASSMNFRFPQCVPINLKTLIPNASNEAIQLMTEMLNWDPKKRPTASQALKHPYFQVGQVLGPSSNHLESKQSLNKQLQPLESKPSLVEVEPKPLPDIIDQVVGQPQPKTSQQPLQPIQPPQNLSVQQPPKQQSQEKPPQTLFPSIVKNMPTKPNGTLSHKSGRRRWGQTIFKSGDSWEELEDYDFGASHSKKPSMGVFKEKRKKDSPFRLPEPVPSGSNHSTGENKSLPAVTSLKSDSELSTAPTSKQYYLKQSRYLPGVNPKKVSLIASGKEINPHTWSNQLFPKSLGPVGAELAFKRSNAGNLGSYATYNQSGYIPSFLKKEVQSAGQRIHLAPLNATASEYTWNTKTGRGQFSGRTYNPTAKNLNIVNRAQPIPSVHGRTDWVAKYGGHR
Chain of Receptor-type tyrosine-protein kinase FLT3 (Homo sapiens), P36888 [UNDEFINED MUTATION] (P36888 whole entry, looked up, stated change not applied, the tested form may be a part): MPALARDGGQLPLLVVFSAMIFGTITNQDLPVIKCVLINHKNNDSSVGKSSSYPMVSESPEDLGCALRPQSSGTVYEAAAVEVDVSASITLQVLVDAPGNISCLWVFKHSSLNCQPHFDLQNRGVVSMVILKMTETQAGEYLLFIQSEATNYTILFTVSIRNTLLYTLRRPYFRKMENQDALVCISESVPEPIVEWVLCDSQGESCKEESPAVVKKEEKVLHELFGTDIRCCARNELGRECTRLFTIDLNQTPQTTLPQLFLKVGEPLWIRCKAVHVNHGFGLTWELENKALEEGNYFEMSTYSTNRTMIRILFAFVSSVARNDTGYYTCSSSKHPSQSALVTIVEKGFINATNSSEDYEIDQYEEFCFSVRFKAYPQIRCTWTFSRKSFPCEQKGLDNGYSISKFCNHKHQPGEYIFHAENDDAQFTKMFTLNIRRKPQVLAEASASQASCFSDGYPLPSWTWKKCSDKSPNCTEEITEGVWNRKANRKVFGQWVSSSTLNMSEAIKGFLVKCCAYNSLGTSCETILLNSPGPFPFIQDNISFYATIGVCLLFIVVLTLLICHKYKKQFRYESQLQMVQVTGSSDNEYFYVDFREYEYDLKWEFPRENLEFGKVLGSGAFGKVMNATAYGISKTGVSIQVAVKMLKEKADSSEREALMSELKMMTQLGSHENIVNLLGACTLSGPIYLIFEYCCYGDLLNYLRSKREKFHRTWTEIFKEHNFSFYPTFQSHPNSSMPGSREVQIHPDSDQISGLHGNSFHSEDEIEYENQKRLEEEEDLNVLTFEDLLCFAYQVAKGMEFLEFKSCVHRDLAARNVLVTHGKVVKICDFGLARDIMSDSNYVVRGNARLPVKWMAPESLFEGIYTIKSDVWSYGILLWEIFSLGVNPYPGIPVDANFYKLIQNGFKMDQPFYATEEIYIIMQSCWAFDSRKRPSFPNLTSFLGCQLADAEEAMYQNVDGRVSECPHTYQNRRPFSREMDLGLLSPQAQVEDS
Chain of Cytoplasmic tyrosine-protein kinase BMX (Homo sapiens) (P51813 whole entry, the tested form may be a part): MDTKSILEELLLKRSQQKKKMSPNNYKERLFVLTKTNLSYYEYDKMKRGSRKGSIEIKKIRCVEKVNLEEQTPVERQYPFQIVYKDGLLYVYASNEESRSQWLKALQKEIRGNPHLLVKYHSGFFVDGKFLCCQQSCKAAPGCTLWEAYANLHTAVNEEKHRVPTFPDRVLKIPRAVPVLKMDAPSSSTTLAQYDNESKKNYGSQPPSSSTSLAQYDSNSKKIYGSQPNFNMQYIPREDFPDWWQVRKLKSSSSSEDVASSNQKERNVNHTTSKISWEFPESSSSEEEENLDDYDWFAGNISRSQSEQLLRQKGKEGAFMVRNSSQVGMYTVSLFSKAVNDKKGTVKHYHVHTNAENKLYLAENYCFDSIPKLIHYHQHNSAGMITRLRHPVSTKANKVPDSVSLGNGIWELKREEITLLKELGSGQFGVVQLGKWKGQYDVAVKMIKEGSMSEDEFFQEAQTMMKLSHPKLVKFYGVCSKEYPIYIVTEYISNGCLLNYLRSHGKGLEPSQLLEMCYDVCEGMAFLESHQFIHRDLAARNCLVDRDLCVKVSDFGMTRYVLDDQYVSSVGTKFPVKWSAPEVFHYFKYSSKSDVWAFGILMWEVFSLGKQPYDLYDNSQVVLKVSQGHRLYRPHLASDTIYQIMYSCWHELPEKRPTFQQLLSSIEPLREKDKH
Chain of Fibroblast growth factor receptor 3 (Homo sapiens) (P22607 23-806 limits assumed): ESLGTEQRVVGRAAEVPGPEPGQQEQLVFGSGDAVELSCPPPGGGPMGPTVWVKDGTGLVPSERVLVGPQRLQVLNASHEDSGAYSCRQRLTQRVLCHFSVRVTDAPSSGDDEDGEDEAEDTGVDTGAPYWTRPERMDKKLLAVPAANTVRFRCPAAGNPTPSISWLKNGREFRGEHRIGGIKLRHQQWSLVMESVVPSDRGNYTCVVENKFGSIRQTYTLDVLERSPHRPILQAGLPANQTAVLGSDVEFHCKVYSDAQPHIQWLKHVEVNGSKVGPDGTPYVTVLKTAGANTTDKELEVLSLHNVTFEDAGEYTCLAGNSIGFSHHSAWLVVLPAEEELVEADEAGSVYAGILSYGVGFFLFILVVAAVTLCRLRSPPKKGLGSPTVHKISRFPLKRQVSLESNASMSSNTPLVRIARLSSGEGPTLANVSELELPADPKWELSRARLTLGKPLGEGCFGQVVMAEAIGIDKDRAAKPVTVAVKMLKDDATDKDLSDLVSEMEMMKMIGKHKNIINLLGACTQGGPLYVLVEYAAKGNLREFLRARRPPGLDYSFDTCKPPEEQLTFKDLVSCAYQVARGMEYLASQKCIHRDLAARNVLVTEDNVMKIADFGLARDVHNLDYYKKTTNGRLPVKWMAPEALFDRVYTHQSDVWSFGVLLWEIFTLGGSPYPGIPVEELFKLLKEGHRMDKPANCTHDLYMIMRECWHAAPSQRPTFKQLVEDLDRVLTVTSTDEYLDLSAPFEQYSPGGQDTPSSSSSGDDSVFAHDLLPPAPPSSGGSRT

In general, IC50 refers to the concentration at which inhibition is half-maximal. For the compound `O=C(Nc1cc(-c2cn(CCNc3c4c(nc5ccccc35)CCCC4)nn2)ccn1)Nc1cccc2c1C1CCCCN1C2=O` (racemic), the Activity in assay [1] was 93%; in assay [2] it was 8.7%; in assay [3], 3.9%; in assay [4], 100%; in [5], 54%; in assay [6], 84%. In addition, the Activity in [7] amounted to 25%; in assay [9] it was 100%; in assay [10] it was 27%; in [11], 99%; in assay [12] it was 100%; in assay [13], 2.1%. For the same compound, the Activity came out at 2.6% in assay [14], 0.25% in assay [15], 0.25% in [16] and 52% in assay [17]. Moreover, in [8], the IC50 turned out to be 3000 nM.
